Drawing on ChEMBL document CHEMBL1154193, “Carbonic anhydrase II-induced selection of inhibitors from a dynamic combinatorial library of Schiff's bases” (Bioorg Med Chem Lett, 2009), this text covers Ki for one compound.

A word on the Ki: it is the dissociation constant of the complex between target and ligand, obtained from inhibition or displacement. Low values mean a stronger hold on the target, high ones a looser hold on the target.

The target of the test is Carbonic anhydrase 2 (Homo sapiens, UniProt P00918).

Description: Inhibition of human carbonic anhydrase 2-catalyzed CO2 hydration by stopped flow technique

Compound `NS(=O)(=O)c1ccc(/N=C/c2ccc(O)cc2)cc1` showed a Ki of 702 nM. This lies in the sub-micromolar range.
